Literature values in patent publication US7345028B1, “Energy-protective composition comprising adenosine phosphates” (priority 2002, dated 2008).

System: experimental animals
Conditions: administered prior to and after gamma irradiation

## Nc1ncnc2c1ncn2[C@@H]1O[C@H](COP(=O)(O)OP(=O)(O)O)[C@@H](O)[C@H]1O [adenosine diphosphate]
  protective action against irradiation: protective action
